Where two headings read alike, the source gives them in different places.
Assays:
[1] = biological target: T1, Human recombinant PTP1B (hPTP1B) (Homo sapiens, UniProt P18031); type: biochemical; settings: hPTP1B
T1 construct: made in house
T1 sequence (P18031 1-435): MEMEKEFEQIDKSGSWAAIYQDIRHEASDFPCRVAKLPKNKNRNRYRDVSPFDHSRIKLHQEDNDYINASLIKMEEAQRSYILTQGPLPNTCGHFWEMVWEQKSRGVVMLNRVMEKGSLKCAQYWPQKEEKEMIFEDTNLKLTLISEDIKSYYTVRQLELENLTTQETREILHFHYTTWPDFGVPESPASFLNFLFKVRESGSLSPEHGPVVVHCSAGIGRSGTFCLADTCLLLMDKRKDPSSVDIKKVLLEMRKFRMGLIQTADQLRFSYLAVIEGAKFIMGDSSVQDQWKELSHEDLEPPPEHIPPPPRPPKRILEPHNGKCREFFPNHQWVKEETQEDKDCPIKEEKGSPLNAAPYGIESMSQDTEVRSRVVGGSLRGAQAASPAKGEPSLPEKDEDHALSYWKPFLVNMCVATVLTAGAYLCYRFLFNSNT

[2] = test system: rat hepatic microsomal PTPases; settings: rat hepatic microsomal PTPase; for % Change from Control at 50 μM: 50 μM compound; for IC50: dodecaphosphopeptide substrate 50 uM
[3] = biological target: T2, recombinant rat protein tyrosine phosphatase, PTP1B (rPTP1B) (Rattus norvegicus, UniProt P20417); type: biochemical; settings: rPTP1B; for IC50: read-out: IC50
T2 sequence (P20417 1-432): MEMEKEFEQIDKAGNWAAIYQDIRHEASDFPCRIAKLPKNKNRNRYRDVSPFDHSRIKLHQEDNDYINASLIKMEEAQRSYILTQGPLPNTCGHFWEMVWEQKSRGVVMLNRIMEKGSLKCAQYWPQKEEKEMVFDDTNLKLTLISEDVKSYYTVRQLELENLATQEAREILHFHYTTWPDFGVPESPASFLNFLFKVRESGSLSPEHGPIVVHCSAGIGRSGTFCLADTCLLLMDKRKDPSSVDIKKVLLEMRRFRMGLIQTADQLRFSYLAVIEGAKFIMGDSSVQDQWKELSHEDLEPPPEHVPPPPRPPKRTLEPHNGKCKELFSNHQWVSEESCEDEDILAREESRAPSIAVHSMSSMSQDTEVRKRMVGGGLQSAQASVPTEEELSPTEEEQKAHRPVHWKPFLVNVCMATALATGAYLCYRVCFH

diabetic (ob/ob) mice = assay: Blood glucose lowering activity in diabetic (ob/ob) mice; type: in vivo; settings: Mus musculus, po
Experimental: The procedures used and results obtained are briefly described below. […]
In each test procedure, mice [Male or female ob/ob (C57 B1/6J) and their lean litermates (ob/+ or +/+, Jackson Laboratories) ages 2 to 5 months (10 to 65 g)] of a similar age were randomized according to body weight into 4 groups of 10 mice. The mice were housed 5 per cage and are maintained on normal rodent chow with water ad libitum. Mice received test compound daily by gavage (suspended in 0.5 ml of 0.5% methyl cellulose); dissolved in the drinking water; or admixed in the diet. The dose of compounds given ranges from 2.5 to 200 mg/kg body weight/day. The dose is calculated based on the fed weekly body weight and is expressed as active moiety. […] Control mice received vehicle only.
On the morning of Day 4, 7 or 14 two drops of blood (approximetly 50 ul) were collected into sodium fluoride containing tubes either from the tail vein or after decapitation. For those studies in which the compound was administered daily by gavage the blood samples were collected two hours after compound administration. […]
Analysis of variance followed by Dunett's Comparison Test (one-tailed) are used to estimate the significant difference between the plasma glucose values from the control group and the individual compound treated groups (CMS SAS Release 5.18).

[4] = test system: Human recombinant PTP1B (hPTP1B); type: biochemical
[5] = 96 h, plasma glucose on Day 4, 7 or 14, suffix a = no significant activity at this dose, read-out: % Change Glucose from Vehicle
[6] = suffix a = no significant activity at this dose, read-out: % Change Insulin from Vehicle

| Compound | IC50 [1] | % Change from Control at 50 μM [2] | melting point | IC50 [3] | change in vivo at 100 mg/kg (diabetic (ob/ob) mice; [5]) | change in vivo at 100 mg/kg (diabetic (ob/ob) mice; [6]) | IC50 [2] | % change from control at 10 μM [4] | % change from control at 10 μM ([4]; reference standards, enzyme form (rPTP1B/hPTP1B) not given) | % change from control at 10 μM ([3]; 10 μM compound) |
| --- | --- | --- | --- | --- | --- | --- | --- | --- | --- | --- |
| CCCCc1oc2ccccc2c1C(=O)c1cc(Br)c(O[C@H](Cc2ccccc2)C(=O)O)c(Br)c1 [Example 22, (R)-2-[2,6-dibromo-4-(2-butyl-benzofuran-3-carbonyl)-phenoxy]-3-phenyl-propionic acid] | 1.15 µM | −77% | 56 to 58 °C |  |  |  |  |  |  |  |
| CCCCc1oc2ccccc2c1C(=O)c1cc(I)c(O)c(I)c1 [Example 16, (2-Butyl-benzofuran-3-yl)-(4-hydroxy-3,5-diiodo-phenyl)-methanone] | 2.6 µM |  |  | 0.19 µM | -51.8% | -73.7% | 15.3 µM |  |  |  |
| [Na+].[Na+].[Na+].[O]=[V]([O-])([O-])[O-] [Sodium orthovanadate, reference compound] |  |  |  |  |  |  |  | 244.8% |  |  |
| Ammonium molybdate tetrahydrate [reference compound] |  |  |  |  |  |  |  |  | 8.7% |  |
| O=C(c1cc(Br)c(O)c(Br)c1)c1c(Cc2ccccc2)sc2ccccc12 [Example 11, (2-Benzyl-benzo[b]thiophen-3-yl)-(3,5-dibromo-4-hydroxy-phenyl)-methanone] | 1.94 µM |  | 155.5 to 156.5 °C | 3.97 µM | -30.3% | -53.2% | 33.9 µM |  |  |  |
| CCCCc1oc2ccccc2c1Cc1cc(Br)c(OCC(=O)O)c(Br)c1 [Example 7] | 1.4 µM |  | 118 to 119 °C |  | -29.4% | -13.1% | 22.7 µM |  |  | −99 (rPTP1B) % |
| CCCCc1oc2ccccc2c1Cc1cc(Br)c(O[C@H](Cc2ccccc2)C(=O)O)c(Br)c1 [Example 23, (R)-2-[2,6-dibromo-4-(2-butyl-benzofuran-3-ylmethyl)-phenoxy]-3-phenyl-propionic acid] | 0.87 µM | −85% | 225 to 226 °C |  |  |  |  |  |  |  |
